These results are taken from patent publication US8426415B2, “Human ADAM-10 inhibitors” (Symphony Evolution, Inc., priority 2007, dated 2013).

This series can be described thus: stability in solution of the free hydroxamic acid (observed during purification). The format is physicochemical. As to conditions: degradation during lengthy column elution and solvent evaporation on pilot scale. The text has this:
The purity of hydroxycarbamoylpiperazine of formula VIII obtained after part (i) ranged from 84% to 92%. The observed yields were between 63% and 78%. This hydroxycarbamoylpiperazine was of insufficient purity to produce pure magnesium salt/complex of formula VI suitable for pharmaceutical use. The direct conversion of hydroxycarbamoylpiperazine of formula VIII to the magnesium salt/complex of formula VI by omitting parts (ii) and (iii) yielded the magnesium salt/complex with the purity ranging from 96% to 97%. We discovered that this problem could be solved by first obtaining and separating a benzhydrylpiperazine complex of formula IX prior to the conversion to the magnesium salt/complex of […]. Yields for the process that included parts (i)-(iv) ranged from 81% to 86%. The purity of the magnesium salt/complex of […] was at least 99%; specifically, between 99.4% and 99.7%.

Turning to `COCCOC(=O)N1CCN(S(=O)(=O)c2cc(F)c(Oc3ccc(Cl)cc3)c(F)c2)[C@@H](C(=O)NO)C1` [formula VIII, 4-(4-(4-chlorophenoxy)-3,5-difluorophenylsulfonyl)-3-(hydroxycarbamoyl)piperazine-1-carboxylic acid, (R)-2-methoxyethyl ester], the stability in solution entry is on record as “poor stability in solution”.
